# In PMC5760531, “Action Potential Recording and Pro-arrhythmia Risk Analysis in Human Ventricular Trabeculae” (Frontiers in Physiology, 2018):
# System: human ventricular trabeculae
# Experiment: Action potential recording and pro-arrhythmic score analysis in human ventricular trabeculae (hVT);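 note: sharp microelectrode action potential recordings at 37°C in Tyrode-perfused trabeculae, 4 cumulative concentrations each applied 31 min, values averaged over last 30 APs, vehicle 0.1% DMSO as control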
# Settings: for EADs (raw data) / Refractoriness Escape (raw data) / Beat Escape (raw data): n=4 trabeculae
# [1] = 2Hz, 0.7-FOLD free ETPC (4.1µM)
smiles,measurement,setting,value
"Cc1cccc(C)c1OCC(C)N (stereo not shown) [MEXILETINE, Mexiletine]",EADs (raw data),"1Hz, 73-FOLD free ETPC (4.1µM)",0
same,Refractoriness Escape (raw data),"1Hz, 73-FOLD free ETPC (4.1µM)",0
same,AMAX (average raw data),[1],105
same,AMAX percentage change compared to vehicle control,[1],-2%
same,APD30 (average raw data),[1],126
same,APD30 percentage change compared to vehicle control,[1],-7%
same,APD50 (average raw data),[1],172
same,APD50 percentage change compared to vehicle control,[1],-4%
same,APD90 (average raw data),[1],257
same,APD90 percentage change compared to vehicle control,[1],-1%
same,Alternans (average raw data),[1],2.02
same,Alternans percentage change compared to vehicle control,[1],59%
same,Beat Escape percentage change compared to vehicle control,[1],50%
same,EADs percentage change compared to vehicle control,[1],0%
same,ERP (average raw data),[1],0.45
same,ERP percentage change compared to vehicle control,[1],5%
same,Max Dispersion (average raw data),[1],6.13
same,Max Dispersion percentage change compared to vehicle control,[1],-14%
same,RMP (average raw data),[1],-88
same,RMP percentage change compared to vehicle control,[1],0%
same,Refractoriness Escape percentage change compared to vehicle control,[1],0%
same,STV (average raw data),[1],1.38
same,STV percentage change compared to vehicle control,[1],81%
same,Triangulation (average raw data),[1],131
same,Triangulation percentage change compared to vehicle control,[1],5%
same,Beat Escape (raw data),[1],2
same,EADs (raw data),[1],0
same,Refractoriness Escape (raw data),[1],0
same,AMAX (average raw data),"2Hz, 7-FOLD free ETPC (4.1µM)",99
same,AMAX percentage change compared to vehicle control,"2Hz, 7-FOLD free ETPC (4.1µM)",-8%
same,APD30 (average raw data),"2Hz, 7-FOLD free ETPC (4.1µM)",128
same,APD30 percentage change compared to vehicle control,"2Hz, 7-FOLD free ETPC (4.1µM)",-6%
same,APD50 (average raw data),"2Hz, 7-FOLD free ETPC (4.1µM)",167
same,APD50 percentage change compared to vehicle control,"2Hz, 7-FOLD free ETPC (4.1µM)",-8%
same,APD90 (average raw data),"2Hz, 7-FOLD free ETPC (4.1µM)",255
same,APD90 percentage change compared to vehicle control,"2Hz, 7-FOLD free ETPC (4.1µM)",-2%
same,Alternans (average raw data),"2Hz, 7-FOLD free ETPC (4.1µM)",1.03
same,Alternans percentage change compared to vehicle control,"2Hz, 7-FOLD free ETPC (4.1µM)",-19%
same,Beat Escape percentage change compared to vehicle control,"2Hz, 7-FOLD free ETPC (4.1µM)",75%
same,EADs percentage change compared to vehicle control,"2Hz, 7-FOLD free ETPC (4.1µM)",0%
same,ERP (average raw data),"2Hz, 7-FOLD free ETPC (4.1µM)",0.39
same,ERP percentage change compared to vehicle control,"2Hz, 7-FOLD free ETPC (4.1µM)",-9%
same,Max Dispersion (average raw data),"2Hz, 7-FOLD free ETPC (4.1µM)",4.70
same,Max Dispersion percentage change compared to vehicle control,"2Hz, 7-FOLD free ETPC (4.1µM)",-34%
same,RMP (average raw data),"2Hz, 7-FOLD free ETPC (4.1µM)",-89
same,RMP percentage change compared to vehicle control,"2Hz, 7-FOLD free ETPC (4.1µM)",1%
same,Refractoriness Escape percentage change compared to vehicle control,"2Hz, 7-FOLD free ETPC (4.1µM)",0%
same,STV (average raw data),"2Hz, 7-FOLD free ETPC (4.1µM)",0.76
same,STV percentage change compared to vehicle control,"2Hz, 7-FOLD free ETPC (4.1µM)",3%
same,Triangulation (average raw data),"2Hz, 7-FOLD free ETPC (4.1µM)",127
same,Triangulation percentage change compared to vehicle control,"2Hz, 7-FOLD free ETPC (4.1µM)",2%
same,Beat Escape (raw data),"2Hz, 7-FOLD free ETPC (4.1µM)",3
same,EADs (raw data),"2Hz, 7-FOLD free ETPC (4.1µM)",0
same,Refractoriness Escape (raw data),"2Hz, 7-FOLD free ETPC (4.1µM)",0
same,AMAX (average raw data),"2Hz, 24-FOLD free ETPC (4.1µM)",90
same,AMAX percentage change compared to vehicle control,"2Hz, 24-FOLD free ETPC (4.1µM)",-16%
same,APD30 (average raw data),"2Hz, 24-FOLD free ETPC (4.1µM)",129
same,APD30 percentage change compared to vehicle control,"2Hz, 24-FOLD free ETPC (4.1µM)",-4%
same,APD50 (average raw data),"2Hz, 24-FOLD free ETPC (4.1µM)",169
same,APD50 percentage change compared to vehicle control,"2Hz, 24-FOLD free ETPC (4.1µM)",-7%
same,APD90 (average raw data),"2Hz, 24-FOLD free ETPC (4.1µM)",269
same,APD90 percentage change compared to vehicle control,"2Hz, 24-FOLD free ETPC (4.1µM)",3%
same,Alternans (average raw data),"2Hz, 24-FOLD free ETPC (4.1µM)",30.91
same,Alternans percentage change compared to vehicle control,"2Hz, 24-FOLD free ETPC (4.1µM)",2347%
same,EADs percentage change compared to vehicle control,"2Hz, 24-FOLD free ETPC (4.1µM)",0%
same,ERP (average raw data),"2Hz, 24-FOLD free ETPC (4.1µM)",0.37
same,ERP percentage change compared to vehicle control,"2Hz, 24-FOLD free ETPC (4.1µM)",-13%
same,Max Dispersion (average raw data),"2Hz, 24-FOLD free ETPC (4.1µM)",59.90
same,Max Dispersion percentage change compared to vehicle control,"2Hz, 24-FOLD free ETPC (4.1µM)",741%
same,RMP (average raw data),"2Hz, 24-FOLD free ETPC (4.1µM)",-88
same,RMP percentage change compared to vehicle control,"2Hz, 24-FOLD free ETPC (4.1µM)",0%
same,Refractoriness Escape percentage change compared to vehicle control,"2Hz, 24-FOLD free ETPC (4.1µM)",0%
same,STV (average raw data),"2Hz, 24-FOLD free ETPC (4.1µM)",21.80
same,STV percentage change compared to vehicle control,"2Hz, 24-FOLD free ETPC (4.1µM)",2766%
same,Triangulation (average raw data),"2Hz, 24-FOLD free ETPC (4.1µM)",139
same,Triangulation percentage change compared to vehicle control,"2Hz, 24-FOLD free ETPC (4.1µM)",11%
same,Beat Escape (raw data),"2Hz, 24-FOLD free ETPC (4.1µM)",4
same,EADs (raw data),"2Hz, 24-FOLD free ETPC (4.1µM)",0
same,Refractoriness Escape (raw data),"2Hz, 24-FOLD free ETPC (4.1µM)",0
same,AMAX (average raw data),"2Hz, 73-FOLD free ETPC (4.1µM)",43
same,AMAX percentage change compared to vehicle control,"2Hz, 73-FOLD free ETPC (4.1µM)",-60%
same,APD30 (average raw data),"2Hz, 73-FOLD free ETPC (4.1µM)",82
same,APD30 percentage change compared to vehicle control,"2Hz, 73-FOLD free ETPC (4.1µM)",-30%
same,APD50 (average raw data),"2Hz, 73-FOLD free ETPC (4.1µM)",118
same,APD50 percentage change compared to vehicle control,"2Hz, 73-FOLD free ETPC (4.1µM)",-30%
same,APD90 (average raw data),"2Hz, 73-FOLD free ETPC (4.1µM)",234
same,APD90 percentage change compared to vehicle control,"2Hz, 73-FOLD free ETPC (4.1µM)",-3%
same,Alternans (average raw data),"2Hz, 73-FOLD free ETPC (4.1µM)",21.46
same,Alternans percentage change compared to vehicle control,"2Hz, 73-FOLD free ETPC (4.1µM)",1598%
same,EADs percentage change compared to vehicle control,"2Hz, 73-FOLD free ETPC (4.1µM)",0%
same,ERP (average raw data),"2Hz, 73-FOLD free ETPC (4.1µM)",0.45
same,ERP percentage change compared to vehicle control,"2Hz, 73-FOLD free ETPC (4.1µM)",5%
same,Max Dispersion (average raw data),"2Hz, 73-FOLD free ETPC (4.1µM)",35.75
same,Max Dispersion percentage change compared to vehicle control,"2Hz, 73-FOLD free ETPC (4.1µM)",402%
same,RMP (average raw data),"2Hz, 73-FOLD free ETPC (4.1µM)",-68
same,RMP percentage change compared to vehicle control,"2Hz, 73-FOLD free ETPC (4.1µM)",-19%
same,Refractoriness Escape percentage change compared to vehicle control,"2Hz, 73-FOLD free ETPC (4.1µM)",0%
same,STV (average raw data),"2Hz, 73-FOLD free ETPC (4.1µM)",15.46
same,Triangulation (average raw data),"2Hz, 73-FOLD free ETPC (4.1µM)",152
same,Triangulation percentage change compared to vehicle control,"2Hz, 73-FOLD free ETPC (4.1µM)",25%
same,Beat Escape (raw data),"2Hz, 73-FOLD free ETPC (4.1µM)",2
same,EADs (raw data),"2Hz, 73-FOLD free ETPC (4.1µM)",0
same,Refractoriness Escape (raw data),"2Hz, 73-FOLD free ETPC (4.1µM)",0
